System: HEK293 cells
Assay: Preliminary screening as DNA vectors, GFP transfection of HEK293 cells
Assay type: cell-based
Conditions: amino lipid/DOPE liposome with 75 ng plasmid DNA (psin-EGFP-IRES-Puro); number of GFP-expressing cells divided by total nuclei (Hoechst)
Summary of the method: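 First, amino lipid and DOPE were vortexed in sodium acetate buffer (pH 5.6) to form liposomes. Next, these were held with 75 ng EGFP plasmid at room temperature for 30 min. Finally, HEK293 cells were added, cultured at 37° C., Hoechst-stained, and GFP+/total nuclei scored by imaging.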

| Structure (SMILES) | Absolute DNA transfection efficiency in HEK293 cells [%] |
| --- | --- |
| CCCCCCCCCCCCCCCCCCSc1nc(NCCCCCCCC)nc(NCCCN(C)C)n1 [S18N8 D6] | 23.0 |
| CCCCCCCCCCCCCCCNc1nc(NCCCN2CCN(C)CC2)nc(SCCCCCCCCCCCCCCC)n1 [S15N15 D9] | 0.5 |
| CCCCCCCCCCCCCCCNc1nc(NCCN2CCN(C)CC2)nc(SCCCCCC)n1 [S6N15 D5] | 22.3 |
| CCCCCCCCCCSc1nc(NCCCCCCCCC)nc(NCC2CCN(C)CC2)n1 [S10N9 D10] | 4.5 |
| CCCCCCCCCCCCSc1nc(NCCCCCC)nc(NCCN(CC)CC)n1 [S12N6 D7] | 6.5 |
| CCCCCCCCCCCCCCCCNc1nc(NCCCN2CCOCC2)nc(SCCCCCCCC)n1 [S8N16 D8] | 8.2 |
| CCCCCCCCSc1nc(NCCN2CCCCC2)nc(SCCCCCC)n1 [S6S8 D4] | 1.3 |
| CCCCCCCCCCCCCNc1nc(NCCN2CCOCC2)nc(SCCCCCCCC)n1 [S8N13 D2] | 19.7 |
| CCCCCCCCCCCCCCSc1nc(NCCCCCCCCCCCC)nc(NCCCN2CCN(C)CC2)n1 [S14N12 D9] | 4.1 |
| CCCCCCCNc1nc(NCCCN2CCN(C)CC2)nc(SCCCCCCC)n1 [S7N7 D9] | 10.9 |
| CCCCCCCCSc1nc(NCCN2CCCC2)nc(SCCCCCCC)n1 [S7S8 D3] | 9.2 |
| CCCCCCCCCCCCCCCCNc1nc(NCCN(C)C)nc(SCCCCCCC)n1 [S7N16 D1] | 20.0 |
| CCCCCCCCCCCCCCCNc1nc(NCCCN(C)C)nc(SCCCCCCCCC)n1 [S9N15 D6] | 13.4 |
| CCCCCCCCCCCCCNc1nc(NCCCN2CCN(C)CC2)nc(SCCCCCCCCCCCC)n1 [S12N13 D9] | 2.1 |
| CCCCCCCCCCCCCCCCNc1nc(NCCCN2CCOCC2)nc(SCCCCCCC)n1 [S7N16 D8] | 8.1 |
| CCCCCCCCCCCCCCCCNc1nc(NCCN(CC)CC)nc(SCCCCCC)n1 [S6N16 D7] | 2.6 |
| CCCCCCCCCCCCCCCCSc1nc(NCCCCCC)nc(NCCCN2CCN(C)CC2)n1 [S16N6 D9] | 9.6 |
| CCCCCCCCCCCCSc1nc(NCCCCCCCCC)nc(NCCN2CCCCC2)n1 [S12N9 D4] | 0.1 |
| CCCCCCCCCCCCCCCCNc1nc(NCCN2CCCCC2)nc(SCCCCCCCC)n1 [S8N16 D4] | 1.0 |
| CCCCCCCCSc1nc(NCCCCCCC)nc(NCCN(C)C)n1 [S8N7 D1] | 3.0 |
| CCCCCCCCCCCCCCCCNc1nc(NCCN2CCCC2)nc(SCCCCCCCCC)n1 [S9N16 D3] | 31.3 |
| CCCCCCCCCCCSc1nc(NCCN(C)C)nc(SCCCCCCCC)n1 [S8S11 D1] | 9.2 |
| CCCCCCCCCSc1nc(NCCCCCCC)nc(NCCCN2CCOCC2)n1 [S9N7 D8] | 6.1 |
| CCCCCCCCCSc1nc(NCC2CCN(C)CC2)nc(SCCCCCC)n1 [S6S9 D10] | 18.0 |
| CCCCCCCCCCCCNc1nc(NCCN2CCCC2)nc(SCCCCCC)n1 [S6N12 D3] | 6.2 |
| CCCCCCCCCCCCNc1nc(NCC2CCN(C)CC2)nc(SCCCCCC)n1 [S6N12 D10] | 21.3 |
| CCCCCCCCCCCCCCCCCCSc1nc(NCCN2CCCC2)nc(N(CCCCCCCCCCCC)CCCCCCCCCCCC)n1 [S18^2N12 D3] | 0.2 |

| Structure (SMILES) | Absolute DNA transfection efficiency in HEK293 cells [%] |
| --- | --- |
| CCCCCCCCCCCCCCCCCCNc1nc(NCC2CCN(C)CC2)nc(SCCCCCC)n1 [S6N18 D10] | 13.0 |
| CCCCCCCCCCCCCNc1nc(NCCN(C)C)nc(SCCCCCCC)n1 [S7N13 D1] | 11.7 |
| CCCCCCCCCCCCN(CCCCCCCCCCCC)c1nc(NCCN(CC)CC)nc(SCCCCCC)n1 [S6^2N12 D7] | 0.3 |
| CCCCCCCCCCCCCCCCCCSc1nc(NCCCCCCCCCCCCCCC)nc(NCCCN(C)C)n1 [S18N15 D6] | 0.0 |
| CCCCCCCNc1nc(NCCN(C)C)nc(SCCCCCC)n1 [S6N7 D1] | 0.1 |
| CCCCCCCCSc1nc(NCCN(C)C)nc(SCCCCCC)n1 [S6S8 D1] | 1.9 |
| CCCCCCCCCCCCNc1nc(NCC2CCN(C)CC2)nc(SCCCCCCCCCCC)n1 [S11N12 D10] | 4.7 |
| CCCCCCCCCCCCN(CCCCCCCCCCCC)c1nc(NCCN2CCN(C)CC2)nc(SCCCCCCCCC)n1 [S9^2N12 D5] | 0.3 |
| CCCCCCCCCCCCCNc1nc(NCCCN(C)C)nc(SCCCCCCCCC)n1 [S9N13 D6] | 31.8 |
| CCCCCCCCCCCCSc1nc(NCCCCCCCCCCC)nc(NCCN2CCCCC2)n1 [S12N11 D4] | 1.0 |
| CCCCCCCCCCCCSc1nc(NCCCCCCCCCCC)nc(NCCN(CC)CC)n1 [S12N11 D7] | 5.8 |
| CCCCCCCCCCSc1nc(NCCCCCCC)nc(NCCN2CCN(C)CC2)n1 [S10N7 D5] | 7.5 |
| CCCCCCCCCCCCCNc1nc(NCC2CCN(C)CC2)nc(SCCCCCCCCCCCC)n1 [S12N13 D10] | 2.4 |
| CCCCCCCCCCCCN(CCCCCCCCCCCC)c1nc(NCCN(CC)CC)nc(SCCCCCCC)n1 [S7^2N12 D7] | 0.2 |
| CCCCCCCCCCCCCCCCCCSc1nc(NCCCCCCCCCCCCCCC)nc(NCCN2CCOCC2)n1 [S18N15 D2] | 0.0 |
| CCCCCCCCCCCCCCCCCCSc1nc(NCCCCCCCCCCC)nc(NCCCN2CCOCC2)n1 [S18N11 D8] | 1.3 |
| CCCCCCCCCCCNc1nc(NCCCN2CCOCC2)nc(SCCCCCCC)n1 [S7N11 D8] | 13.9 |
| CCCCCCCCCCCSc1nc(NCCCCCC)nc(NCCN2CCCCC2)n1 [S11N6 D4] | 29.0 |
| CCCCCCCCCCCCCCCCNc1nc(NCCCN(C)C)nc(SCCCCCC)n1 [S6N16 D6] | 22.8 |
| CCCCCCCCCCCCCNc1nc(NCCN2CCN(C)CC2)nc(SCCCCCC)n1 [S6N13 D5] | 24.1 |
| CCCCCCCCNc1nc(NCCN2CCN(C)CC2)nc(SCCCCCCCC)n1 [S8N8 D5] | 9.1 |
| CCCCCCCCCCCCCCCNc1nc(NCCCN2CCOCC2)nc(SCCCCCC)n1 [S6N15 D8] | 3.3 |
| CCCCCCCCCSc1nc(NCCN2CCCCC2)nc(SCCCCCCC)n1 [S7S9 D4] | 15.1 |
| CCCCCCSc1nc(NCCN(C)C)nc(SCCCCCC)n1 [S6S6 D1] | 1.1 |
| CCCCCCCCCCSc1nc(NCCN2CCCCC2)nc(SCCCCCCC)n1 [S7S10 D4] | 8.1 |
| CCCCCCCCCCCCCCCSc1nc(NCCN(CC)CC)nc(N(CCCCCCCCCCCC)CCCCCCCCCCCC)n1 [S15^2N12 D7] | 0.2 |
| CCCCCCCCCSc1nc(NCCN(CC)CC)nc(SCCCCCCCC)n1 [S8S9 D7] | 29.3 |

From patent US20230123334A1, “AMINO LIPID COMPOUND, PREPARATION METHOD THEREFOR, AND APPLICATION THEREOF” (SHENZHEN SHENXIN BIOTECHNOLOGY CO., LTD., priority 2020, published 2023)
